Measurements taken from patent EP4711365A1 (Shanghai Hansoh Biomedical Co., Ltd., priority 2023, dated 2024).
pIC50: −log10 of the molar value.

tested on: Groα secretion by HT-29 cells; experiment: Inhibition of Groα secretion by HT-29 cells stimulated with IL-17A (ELISA); format: cell-based, Human; conditions: Homo sapiens, HT-29, 48 h, IL-17A 30 ng/ml, Groα in supernatant
Description: Test example 2 Assay for inhibitory effect of compounds of the present invention against Groα secretion by HT-29 cells
Experimental objective: to measure the inhibitory effect of the compounds against Groα secretion by HT-29 cells, thereby evaluating the inhibition of the compounds on IL-17A pathway.
Experimental method: A cell suspension at 50,000 cells/ml was prepared, and 200 µl of the cell suspension was added to each well of a 96-well plate, i.e., 10,000 cells/well. The plate was cultured overnight. In the 96-well V-bottom plate, 5 mM compound solution was serially diluted 3-fold using DMSO, and the compound from each well was diluted 100-fold using a complete culture medium. IL-17A protein (R&D, #BT7955-025/CF) with a stock concentration of 100 µg/ml was diluted 333.33-fold using a complete culture medium. The compound and IL-17A were mixed at a volume ratio of 1:1 and incubated at 37°C for 30 minutes. 50 µl of a mixture of the compound and IL-17A was added to cell wells, and the final concentration of IL-17A protein was 30 ng/ml.
The mixture was incubated in a 37°C, 5% CO2 cell culture incubator for 48 hours. The concentration of Groα in the supernatant was determined by ELISA method using Human Groα Valukin Elisa kit (Biotechne, # VAL139), and the absorbance intensity at 450 nm was measured using a microplate reader (PE, EnVision2105). Data were analysed using GraphPad Prism 8.3.0.
Experimental data processing method: Data were analysed using GraphPad Prism 8.3.0.
Inhibition rate% = [(average value of positive control wells - value of sample wells)/(average value of positive control wells - average value of negative control wells)] × 100%, where the sample wells are wells containing cells plus compounds at different concentration gradients, the positive control wells are wells containing cells plus IL-17A, and the negative control wells are wells containing culture medium plus IL-17A.
Curve fitting: The IC50 value was obtained by curve fitting based on the inhibition rate (%) at each concentration using the log(inhibitor) vs. responseVariable slope (four parameters) in GraphPad Prism 6.0, and the calculation equation was Y = Bottom + (Top-Bottom)/(1+10^((LogIC50-X)*HillSlope)).

Row | Structure (SMILES) | pIC50
1 | [2H]C([2H])([2H])C([2H])([2H])n1nccc1C(=O)N[C@H](C(=O)Nc1ncc([C@@H](CN2CCC(F)CC2)N2CC(F)(F)CCC2=O)s1)[C@H]1CC[C@H](C)CC1 [Example 919] | 8.40
2 | CCn1nccc1C(=O)N[C@H](C(=O)Nc1ncc([C@@H](CN(C)C)n2cc(Cl)ccc2=O)s1)[C@H]1CC[C@H](C)CC1 [Example 644] | 8.42
3 | [2H]C([2H])([2H])n1nccc1C(=O)N[C@H](C(=O)Nc1ncc([C@@H](CN2CCOCC2)N2CC(F)(F)CCC2=O)s1)[C@H]1CC[C@H](C)CC1 [Example 1030] | 8.15
4 | C[C@H]1CC[C@H]([C@H](NC(=O)C2(F)CC2)C(=O)Nc2ncc([C@@H](CN3CCC(CF)CC3)N3CC(F)(F)CNC3=O)s2)CC1 [Example 767] | 8.15
5 | [2H]C([2H])([2H])C([2H])([2H])n1nccc1C(=O)N[C@H](C(=O)Nc1ncc(C(COC)n2cc(Cl)ccc2=O)s1)[C@H]1CC[C@H](C)CC1 (stereo partly drawn) [Example 586-1] | 8.08
6 | CCn1nccc1C(=O)N[C@H](C(=O)Nc1ncc([C@@H](CN2CCC(OC)CC2)n2cc(Cl)ccc2=O)s1)[C@H]1CC[C@H](C)CC1 [Example 634] | 8.60
7 | [2H]C([2H])([2H])C([2H])([2H])n1nccc1C(=O)N[C@H](C(=O)Nc1ncc([C@@H](CN2CCC3(CCOC3)CC2)N2CC(F)(F)CCC2=O)s1)[C@H]1CC[C@H](C)CC1 [Example 1034] | 8.22
8 | CCn1nccc1C(=O)N[C@H](C(=O)Nc1ncc([C@@H](COC)n2cc(Cl)ccc2=O)s1)[C@H]1CC[C@H](C)CC1 [Example 689] | 8.28
9 | [2H]C([2H])([2H])C([2H])([2H])n1nccc1C(=O)NC(C(=O)Nc1ncc(C(CN2CCC3C(C2)C3(F)F)N2CC(F)(F)CCC2=O)s1)C1CCC(C)CC1 (stereo not drawn) [Example 970] | 8.40
10 | CCn1nccc1C(=O)N[C@H](C(=O)Nc1ncc([C@@H](CN2CCC3(CC2)OCCO3)n2cc(Cl)ccc2=O)s1)[C@H]1CC[C@H](C)CC1 [Example 1020] | 8.60
11 | COC[C@H](c1cnc(NC(=O)[C@@H](NC(=O)c2ccnn2C(C)C)C2CCCCC2)s1)N1CC(F)(F)CNC1=O [Example 565] | 8.40
12 | CCc1nonc1C(=O)N[C@H](C(=O)Nc1ncc(C(C2CCS(=O)(=O)CC2)n2cc(Cl)ccc2=O)s1)[C@H]1CC[C@H](C)CC1 (stereo partly drawn) [Example 540-1] | 8.10
13 | CCn1nccc1C(=O)N[C@H](C(=O)Nc1ncc([C@@H](CN2CCCCC2)N2CC(F)(F)CCC2=O)s1)[C@H]1CC[C@H](C)CC1 [Example 1021] | 8.07
14 | [2H]C([2H])([2H])C([2H])([2H])n1nccc1C(=O)N[C@H](C(=O)Nc1ncc([C@@H](CN2CCO[C@H](CF)C2)N2CC(F)(F)CCC2=O)s1)[C@H]1CC[C@H](C)CC1 [Example 820, N-((S)-2-((5-((R)-1-(5,5-difluoro-2-oxopiperidin-1-yl)-2-((S)-2-(fluoromethyl)morpholino)ethyl)thiazol-2-yl)amino)-1-((1r,4S)-4-methylcyclohexyl)-2-oxoethyl)-1-(ethyl-d5)-1H-pyrazole-5-carboxamide] | 8.52
15 | [2H]C([2H])([2H])OC1(C)CCN(C[C@H](c2cnc(NC(=O)[C@@H](NC(=O)c3ccnn3C([2H])([2H])C([2H])([2H])[2H])[C@H]3CC[C@H](C)CC3)s2)N2CC(F)(F)CCC2=O)CC1 [Example 988] | 8.06
16 | CCn1nccc1C(=O)N[C@H](C(=O)Nc1ncc([C@@H](CN2CCC(C(=O)O)CC2)n2cc(Cl)ccc2=O)s1)[C@H]1CC[C@H](C)CC1 [Example 663] | 8.80

Row | Structure (SMILES) | pIC50
17 | [2H]C1([2H])NC(=O)N([C@H](COC)c2cnc(NC(=O)[C@@H](NC(=O)c3ccnn3C(C)C)C3CCC(F)(F)CC3)s2)C([2H])([2H])C1(F)F [Example 259, N-((S)-2-((5-((R)-1-(5,5-difluoro-2-carbonyltetrahydropyrimidin-1(2H)-yl-4,4,6,6-d4)-2-methoxyethyl)thiazol-2-yl)amino)-1-(4,4-difluorocyclohexyl)-2-carbonylethyl)-1-isopropyl-1H-pyrazole-5-carboxamide] | 8.26
18 | CCn1nccc1C(=O)N[C@H](C(=O)Nc1ncc([C@@H](CN(C)CCOC)N2CC(F)(F)CCC2=O)s1)[C@H]1CC[C@H](C)CC1 [Example 1023] | 8.00
19 | [2H]C([2H])([2H])C([2H])([2H])n1nccc1C(=O)N[C@H](C(=O)Nc1ncc([C@@H](CN2C[C@@H](C)OC[C@H]2C)N2CC(F)(F)CCC2=O)s1)[C@H]1CC[C@H](C)CC1 [Example 862, N-((S)-2-((5-((R)-1-(5,5-difluoro-2-oxopiperidin-1-yl)-2-((2R,5R)-2,5-dimethylmorpholino)ethyl)thiazol-2-yl)amino)-1-((1r,4S)-4-methylcyclohexyl)-2-oxoethyl)-1-(ethyl-d5)-1H-pyrazole-5-carboxamide] | 8.57
20 | [2H]C([2H])([2H])C([2H])([2H])n1nccc1C(=O)N[C@H](C(=O)Nc1ncc([C@@H](CN2C[C@H](C)OC[C@@H]2C)N2CC(F)(F)CCC2=O)s1)[C@H]1CC[C@H](C)CC1 [Example 860, N-((S)-2-((5-((R)-1-(5,5-difluoro-2-oxopiperidin-1-yl)-2-((2S,5S)-2,5-dimethylmorpholino)ethyl)thiazol-2-yl)amino)-1-((1r,4S)-4-methylcyclohexyl)-2-oxoethyl)-1-(ethyl-d5)-1H-pyrazole-5-carboxamide] | 8.70
21 | [2H]C([2H])([2H])C([2H])([2H])n1nccc1C(=O)N[C@H](C(=O)Nc1ncc([C@@H](CN2CCC(F)(F)CC2)N2CC(F)(F)CCC2=O)s1)[C@H]1CC[C@H](C)CC1 [Example 913] | 8.46
22 | C[C@H]1CC[C@H]([C@H](NC(=O)C2(F)CC2)C(=O)Nc2ncc([C@@H](CN3CCC4(CC3)CC4(F)F)N3CC(F)(F)CNC3=O)s2)CC1 [Example 1016] | 8.70
23 | COCCN(C)C[C@H](c1cnc(NC(=O)[C@@H](NC(=O)c2ccnn2C)[C@H]2CC[C@H](C)CC2)s1)N1CC(F)(F)CCC1=O [Example 1024] | 8.15
24 | COCCC(c1cnc(NC(=C=O)[C@@H](NC(=O)c2ccnn2C(C)C)C2CCCCC2)s1)N1C[C@@H](C(F)(F)F)NC1=C=O (stereo partly drawn) [Example 564, N-((1S)-1-cyclohexyl-2-((5-(3-methoxy-1-((S)-2-carbonyl-4-(trifluoromethyl)imidazolidin-1-yl)propyl)thiazol-2-yl)amino)-2-carbonylethyl)-1-isopropyl-1H-pyrazole-5-carboxamide] | 8.23
25 | CCn1nccc1C(=O)N[C@H](C(=O)Nc1ncc([C@@H](CN2CCCC2)N2CC(F)(F)CCC2=O)s1)[C@H]1CC[C@H](C)CC1 [Example 1022] | 8.00
26 | [2H]C([2H])([2H])n1nccc1C(=O)N[C@H](C(=O)Nc1ncc([C@@H](CN2CCC3(COC3)C2)N2CC(F)(F)CCC2=O)s1)[C@H]1CC[C@H](C)CC1 [Example 1032] | 8.10
27 | CCn1nccc1C(=O)NC(C(=O)Nc1ncc(C(CN2CCC(OC)C2)N2CC(F)(F)CCC2=O)s1)C1CCC(C)CC1 (stereo not drawn) [Example 648] | 8.02
28 | CCn1nccc1C(=O)N[C@H](C(=O)Nc1ncc([C@@H](CN2CCC(COC)CC2)N2CC(F)(F)CCC2=O)s1)[C@H]1CC[C@H](C)CC1 [Example 1036] | 8.22
29 | [2H]C([2H])([2H])C([2H])([2H])n1nccc1C(=O)N[C@H](C(=O)Nc1ncc([C@@H](CN2CCOCC2)n2cc(Cl)ccc2=O)s1)[C@H]1CC[C@H](C)CC1 [Example 574] | 8.30
30 | [2H]C([2H])([2H])OC1CCN(C[C@H](c2cnc(NC(=O)[C@@H](NC(=O)c3ccnn3C([2H])([2H])C([2H])([2H])[2H])[C@H]3CC[C@H](C)CC3)s2)N2CC(F)(F)CCC2=O)CC1 [Example 986] | 8.05
31 | [2H]C([2H])([2H])C([2H])([2H])n1nccc1C(=O)N[C@H](C(=O)Nc1ncc([C@@H](CN2CCC(=C(F)F)CC2)N2CC(F)(F)CCC2=O)s1)[C@H]1CC[C@H](C)CC1 [Example 980] | 8.30
32 | CCn1nccc1C(=O)N[C@H](C(=O)Nc1ncc([C@@H](CN2C[C@@H](C)OC[C@H]2C)N2CC(F)(F)CCC2=O)s1)[C@H]1CC[C@H](C)CC1 [Example 863] | 8.49

same assay, conditions: Homo sapiens, IL-17A 30 ng/ml, 48 hours, Groα in supernatant

Row | Structure (SMILES) | pIC50
33 | COC[C@H](c1cnc(NC(=O)[C@@H](NC(=O)c2ccnn2C(C)C)[C@H]2CC[C@H](C)CC2)s1)N1CC(F)(F)CNC1=O [Example 327] | 8.60
34 | [2H]C([2H])([2H])OC1CCN(C[C@H](c2cnc(NC(=O)[C@@H](NC(=O)C3(F)CC3)[C@H]3CC[C@H](C)CC3)s2)N2CC(F)(F)CNC2=O)CC1 [Example 780] | 8.00
35 | C[C@H]1CC[C@H]([C@H](NC(=O)C2(F)CC2)C(=O)Nc2ncc([C@@H](CN3CC4CCC(C3)O4)N3CC(F)(F)CNC3=O)s2)CC1 [Example 743] | 8.22

same assay, conditions: IL-17A 30 ng/ml, 48 hours, Groα in supernatant

Row | Structure (SMILES) | pIC50
36 | CCn1nccc1C(=O)NC(C(=O)Nc1ncc(C(CN2CCC(OC)C2)N2CC(F)(F)CCC2=O)s1)C1CCC(C)CC1 (stereo not drawn) [Example 650] | 8.22
